Like-named read-outs stand apart in the source and are kept apart here.
How the values were obtained:
[1] = tested on: H460; test: cells; format: cell-based; details: for IC50: Homo sapiens, NCI-H460, 2 h
[2] = tested on: HT29; test: cells; format: cell-based; details: for IC50: Homo sapiens, HT-29, 2 h

| SMILES | H460 HCR: Air/N2 [1] | IC50 ([1]; read-out: 2 hr Air H460 IC50) [µM] | IC50 ([1]; read-out: 2 hr N2 H460 IC50) [µM] | HT29 HCR: Air/N2 [2] | IC50 ([2]; read-out: 2 hr Air HT29 IC50) [µM] | IC50 ([2]; read-out: 2 hr N2 HT29 IC50) [µM] |
| --- | --- | --- | --- | --- | --- | --- |
| O=[N+]([O-])c1sccc1C(CCS(=O)(=O)Oc1ccccc1)S(=O)(=O)Oc1ccc(N(CCCl)CCCl)cc1 (centres unmarked) [TH-1292, 3-(4-(N,N-bis-(2-Chloroethyl)amino)phenoxysulfonyl-(2-phenoxysulfonylethyl))methyl-2-nitrothiophene] | 127.7 | 195 | 1.5 | 158 | 760 | 4.8 |
| O=[N+]([O-])c1sccc1C(CCS(=O)(=O)N1CCOCC1)S(=O)(=O)Oc1ccc(N(CCCl)CCCl)cc1 (centres unmarked) [TH-1303] | 69 | 75.5 | 1.1 |  | > 300 | > 300 |
| O=[N+]([O-])c1sccc1C(CNS(=O)(=O)c1ccc(F)cc1)S(=O)(=O)Oc1ccc(N(CCCl)CCCl)cc1 (centres unmarked) [TH-1311] | 143 | 57.3 | 0.4 |  | > 300 | > 300 |
| CN(C)c1ccc(CC(c2ccsc2[N+](=O)[O-])S(=O)(=O)Oc2ccc(N(CCCl)CCCl)cc2)cn1 (centres unmarked) [TH-1316] | 179 | 179 | 1 |  | > 300 | > 300 |
| O=[N+]([O-])c1sccc1C(Cc1ccc(OCCO)cc1)S(=O)(=O)Oc1ccc(N(CCCl)CCCl)cc1 (centres unmarked) [TH-1325] | 929 | 92.9 | 0.1 |  | > 300 | > 300 |
| CN1CCN(S(=O)(=O)CCC(c2ccsc2[N+](=O)[O-])S(=O)(=O)Oc2ccc(N(CCCl)CCCl)cc2)CC1 (centres unmarked) [TH-1326, 3-(4-(N,N-bis-(2-Chloroethyl)amino)phenoxysulfonyl-(2-((N-methylpiperazin-4-yl)sulfonyl)ethyl))methyl-2-nitrothiophene] | 42 | 16.6 | 0.4 | 48 | 126 | 2.6 |
| O=C1c2ccccc2C(=O)N1CC(c1ccsc1[N+](=O)[O-])S(=O)(=O)Oc1ccc(N(CCCl)CCCl)cc1 (centres unmarked) [TH-1327] | 178 | 107 | 0.6 |  | > 1000 | > 1000 |
| CC(C)Nc1ccc(CC(c2ccsc2[N+](=O)[O-])S(=O)(=O)Oc2ccc(N(CCCl)CCCl)cc2)cn1 (centres unmarked) [TH-1328] | 187 | 261 | 1.4 | 3.3 | 151 | 46 |
| Nc1ccc(CC(c2ccsc2[N+](=O)[O-])S(=O)(=O)Oc2ccc(N(CCCl)CCCl)cc2)cc1.O=C(O)C(F)(F)F (centres unmarked) [TH-1330, 3-(4-(N,N-bis-(2-Chloroethyl)amino)phenoxysulfonyl-(4-aminophenylmethyl))methyl-2-nitrothiophene] | 253 | 228 | 0.9 | 21 | 186 | 9 |
| O=[N+]([O-])c1sccc1C(Cn1nnc2ccccc21)S(=O)(=O)Oc1ccc(N(CCCl)CCCl)cc1 (centres unmarked) [TH-1343, 3-(4-(N,N-bis-(2-Chloroethyl)amino)phenoxysulfonyl-(benzotriazol-1-yl-methyl))methyl-2-nitrothiophene] | 133 | 93 | 0.7 | >4.2 | > 1000 | 24 |
| CC(=O)Nc1ccc(CC(c2ccsc2[N+](=O)[O-])S(=O)(=O)Oc2ccc(N(CCCl)CCCl)cc2)cc1 (centres unmarked) [TH-1346] | 200 | 220 | 1.1 | 3.2 | 145 | 46 |
| O=[N+]([O-])c1sccc1C(CCS(=O)(=O)N1CCC(O)CC1)S(=O)(=O)Oc1ccc(N(CCCl)CCCl)cc1 (centres unmarked) [TH-1347] | 76 | 136 | 1.8 | 20 | 398 | 20 |
| O=[N+]([O-])c1sccc1C(Cc1ccccn1)S(=O)(=O)Oc1ccc(N(CCCl)CCCl)cc1 (centres unmarked) [TH-1357] | 41 | 127 | 3.1 | >2 | > 1000 | 500 |
| CN(C)S(=O)(=O)CCC(c1ccsc1[N+](=O)[O-])S(=O)(=O)Oc1ccc(N(CCCl)CCCl)cc1 (centres unmarked) [TH-1360] | ~70 | ~300 | 4.3 |  | > 1000 | > 1000 |
| COc1ccc(CC(c2ccsc2[N+](=O)[O-])S(=O)(=O)Oc2ccc(N(CCCl)CCCl)cc2)c(OC)n1 (centres unmarked) [TH-1362] | 46 | 253 | 5.5 |  | > 1000 | > 1000 |
| O=[N+]([O-])c1sccc1C(CCS(=O)(=O)c1ccncc1)S(=O)(=O)Oc1ccc(N(CCCl)CCCl)cc1 (centres unmarked) [TH-1363] | 113 | 68 | 0.6 |  | > 1000 | > 1000 |
| CC(=O)Nc1ccncc1CC(c1ccsc1[N+](=O)[O-])S(=O)(=O)Oc1ccc(N(CCCl)CCCl)cc1 (centres unmarked) [TH-1364] | 36 | 64 | 1.8 | 27 | 350 | 13 |
| Cn1ccnc1CC(c1ccsc1[N+](=O)[O-])S(=O)(=O)Oc1ccc(N(CCCl)CCCl)cc1 (centres unmarked) [TH-1366] | 40 | 20 | 0.5 | 14 | 180 | 13 |
| O=[N+]([O-])c1sccc1C(CCS(=O)(=O)c1ccc(C(F)(F)F)cn1)S(=O)(=O)Oc1ccc(N(CCCl)CCCl)cc1 (centres unmarked) [TH-1369] | 131 | 236 | 1.8 |  | > 1000 | > 1000 |
| Nc1ncccc1CC(c1ccsc1[N+](=O)[O-])S(=O)(=O)Oc1ccc(N(CCCl)CCCl)cc1.O=C(O)C(F)(F)F (centres unmarked) [TH-1374] | 73 | 145 | 2 | 23 | 630 | 28 |
| CC(=O)Nc1ncccc1CC(c1ccsc1[N+](=O)[O-])S(=O)(=O)Oc1ccc(N(CCCl)CCCl)cc1 (centres unmarked) [TH-1375] | 93 | 28 | 0.3 | 16 | 280 | 17 |
| CC(=O)Nc1cc(CC(c2ccsc2[N+](=O)[O-])S(=O)(=O)Oc2ccc(N(CCCl)CCCl)cc2)ccn1 (centres unmarked) [TH-1376] | 236 | 212 | 0.9 | 10 | 540 | 52 |
| O=C(CO)Nc1ncccc1CC(c1ccsc1[N+](=O)[O-])S(=O)(=O)Oc1ccc(N(CCCl)CCCl)cc1 (centres unmarked) [TH-1384] | 30 | 64 | 2.1 | 16 | 275 | 17 |
| O=[N+]([O-])c1sccc1C(CCS(=O)(=O)CCO)S(=O)(=O)Oc1ccc(N(CCCl)CCCl)cc1 (centres unmarked) [TH-1388] | 35 | 49 | 1.4 | 30 | 420 | 14 |
| O=[N+]([O-])c1sccc1C(Cc1cnc(O)c(Cl)c1)S(=O)(=O)Oc1ccc(N(CCCl)CCCl)cc1 (centres unmarked) [TH-1393] | 89 | 151 | 1.7 |  | 710 | 110 |
